Results as given in ChEMBL document CHEMBL3046684, “Molecular docking study on anticancer activity of plant-derived natural products” (Med Chem Res, 2010).

How the values were obtained:
[1] = target: Apoptosis regulator Bcl-2 (Homo sapiens, UniProt P10415); assay: Displacement of NLWAAQRYGRELRRMSD-K(FITC)-FVD from Bcl-2 (unknown origin) by fluorescence polarization assay
DNA topoisomerase 2 = target: T1, DNA topoisomerase 2 (Saccharomyces cerevisiae S288c, UniProt P06786); assay: Inhibition of Saccharomyces cerevisiae DNA topoisomerase 2
T1 sequence (P06786 whole entry): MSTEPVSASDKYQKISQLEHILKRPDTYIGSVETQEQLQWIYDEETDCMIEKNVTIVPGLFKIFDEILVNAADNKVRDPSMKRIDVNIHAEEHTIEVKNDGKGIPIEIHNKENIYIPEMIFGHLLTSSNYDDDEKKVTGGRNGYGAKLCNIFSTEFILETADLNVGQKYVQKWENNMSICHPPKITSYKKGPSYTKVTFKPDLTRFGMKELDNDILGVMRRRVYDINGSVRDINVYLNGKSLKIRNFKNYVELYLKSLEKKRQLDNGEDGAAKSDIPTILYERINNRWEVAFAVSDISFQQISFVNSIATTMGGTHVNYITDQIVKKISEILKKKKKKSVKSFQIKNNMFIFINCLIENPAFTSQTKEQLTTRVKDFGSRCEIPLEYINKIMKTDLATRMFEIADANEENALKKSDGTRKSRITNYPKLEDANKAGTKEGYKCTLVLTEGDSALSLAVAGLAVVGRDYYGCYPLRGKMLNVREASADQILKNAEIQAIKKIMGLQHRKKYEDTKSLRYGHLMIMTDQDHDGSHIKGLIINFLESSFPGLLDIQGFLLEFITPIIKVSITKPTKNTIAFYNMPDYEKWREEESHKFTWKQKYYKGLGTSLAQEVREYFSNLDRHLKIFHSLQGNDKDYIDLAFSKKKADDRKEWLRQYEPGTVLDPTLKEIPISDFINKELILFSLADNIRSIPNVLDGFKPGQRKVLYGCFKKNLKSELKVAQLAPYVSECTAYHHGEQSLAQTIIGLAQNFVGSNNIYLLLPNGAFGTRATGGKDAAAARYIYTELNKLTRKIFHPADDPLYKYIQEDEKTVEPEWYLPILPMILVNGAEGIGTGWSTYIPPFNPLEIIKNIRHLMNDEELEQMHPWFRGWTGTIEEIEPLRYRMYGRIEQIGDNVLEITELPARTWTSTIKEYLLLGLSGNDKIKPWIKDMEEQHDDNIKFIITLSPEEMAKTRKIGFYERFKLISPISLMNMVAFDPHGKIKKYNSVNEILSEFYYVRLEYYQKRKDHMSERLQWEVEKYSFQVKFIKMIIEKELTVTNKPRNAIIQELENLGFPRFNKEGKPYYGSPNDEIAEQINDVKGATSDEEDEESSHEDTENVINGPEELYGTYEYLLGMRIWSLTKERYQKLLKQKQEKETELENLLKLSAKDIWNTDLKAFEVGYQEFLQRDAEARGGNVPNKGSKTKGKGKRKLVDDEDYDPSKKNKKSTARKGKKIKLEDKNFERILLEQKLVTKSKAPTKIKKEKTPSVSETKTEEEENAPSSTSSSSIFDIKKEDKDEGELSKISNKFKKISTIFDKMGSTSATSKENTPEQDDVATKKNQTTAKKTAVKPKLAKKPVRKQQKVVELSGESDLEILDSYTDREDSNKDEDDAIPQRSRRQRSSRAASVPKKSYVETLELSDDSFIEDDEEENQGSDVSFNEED

DNA topoisomerase 1 = target: T2, DNA topoisomerase 1 (Homo sapiens, UniProt P11387); assay: Inhibition of DNA topoisomerase 1 (unknown origin)
T2 sequence (P11387 whole entry): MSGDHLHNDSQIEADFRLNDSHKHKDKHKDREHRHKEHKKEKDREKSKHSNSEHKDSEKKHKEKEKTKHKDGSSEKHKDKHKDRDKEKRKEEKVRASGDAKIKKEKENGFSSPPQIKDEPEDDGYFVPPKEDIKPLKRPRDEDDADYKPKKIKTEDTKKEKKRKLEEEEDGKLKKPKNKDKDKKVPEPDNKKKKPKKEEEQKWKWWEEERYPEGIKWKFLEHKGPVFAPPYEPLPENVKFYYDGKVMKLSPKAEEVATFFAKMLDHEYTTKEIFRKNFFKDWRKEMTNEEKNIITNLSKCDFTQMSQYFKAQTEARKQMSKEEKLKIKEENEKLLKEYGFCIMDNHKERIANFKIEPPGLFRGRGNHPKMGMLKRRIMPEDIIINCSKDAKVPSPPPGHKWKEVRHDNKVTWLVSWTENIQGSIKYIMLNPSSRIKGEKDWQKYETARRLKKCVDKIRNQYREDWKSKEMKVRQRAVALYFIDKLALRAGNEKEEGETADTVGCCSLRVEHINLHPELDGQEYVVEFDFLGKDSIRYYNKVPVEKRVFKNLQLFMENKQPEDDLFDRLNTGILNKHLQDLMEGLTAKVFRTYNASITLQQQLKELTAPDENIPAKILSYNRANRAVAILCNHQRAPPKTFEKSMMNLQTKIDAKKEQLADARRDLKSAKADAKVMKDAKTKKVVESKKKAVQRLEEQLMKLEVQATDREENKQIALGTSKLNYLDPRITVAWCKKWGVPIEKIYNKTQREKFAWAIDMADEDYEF

[2] = Binding affinity to Homo sapiens (human) G-quadruplex DNA assessed as formation of VNTR6-1 mutant complex after 2 min by PCR stop assay
[3] = Binding affinity to Homo sapiens (human) G-quadruplex DNA assessed as formation of G4TER2 mutant complex after 2 min by PCR stop assay
[4] = Binding affinity to Homo sapiens (human) G-quadruplex DNA assessed as formation of G4TER1 mutant complex after 2 min by PCR stop assay

Apoptosis regulator Bcl-2, sequence (P10415 whole entry): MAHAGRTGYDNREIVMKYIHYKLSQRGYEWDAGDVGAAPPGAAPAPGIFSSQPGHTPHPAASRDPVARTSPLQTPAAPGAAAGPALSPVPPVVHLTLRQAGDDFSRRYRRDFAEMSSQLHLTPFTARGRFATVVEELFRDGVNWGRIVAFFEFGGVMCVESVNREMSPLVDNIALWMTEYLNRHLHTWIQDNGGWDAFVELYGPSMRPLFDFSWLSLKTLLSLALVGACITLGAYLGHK

## Oc1cc(O)c2c(c1)O[C@H](c1ccc(O)c(O)c1)[C@H](O)C2 [(-)-EPICATECHIN]
[1]
  Ki: > 100 µM

## O=C(O[C@@H]1Cc2c(O)cc(O)cc2O[C@H]1c1ccc(O)c(O)c1)c1cc(O)c(O)c(O)c1 [CATECHIN GALLATE]
[1]
  Ki: 0.23 µM

## Oc1cc(O)c2c(c1)O[C@H](c1ccc(O)c(O)c1)[C@@H](O)C2 [CATECHIN]
[1]
  Ki: > 100 µM

## O=C(O[C@@H]1Cc2c(O)cc(O)cc2O[C@@H]1c1ccc(O)c(O)c1)c1cc(O)c(O)c(O)c1 [EPICATECHIN GALLATE]
[1]
  Ki: 0.4 µM

## Oc1cc(O)c2c(c1)O[C@H](c1cc(O)c(O)c(O)c1)[C@H](O)C2 [EPIGALLOCATECHIN]
[1]
  Ki: > 100 µM

## O=C(O[C@@H]1Cc2c(O)cc(O)cc2O[C@@H]1c1cc(O)c(O)c(O)c1)c1cc(O)c(O)c(O)c1 [EPIGALOCATECHIN GALLATE]
[1]
  Ki: 0.335 µM
DNA topoisomerase 2
  IC50: 3000 µM

## O=C(O[C@@H]1Cc2c(O)cc(O)cc2O[C@H]1c1cc(O)c(O)c(O)c1)c1cc(O)c(O)c(O)c1 [GALLOCATECHIN GALLATE]
[1]
  Ki: 0.235 µM

## Oc1cc(O)c2c(c1)O[C@H](c1cc(O)c(O)c(O)c1)[C@@H](O)C2 [GALLOCATECHIN]
[1]
  Ki: > 100 µM

## O=c1c(O)c(-c2cc(O)c(O)c(O)c2)oc2cc(O)cc(O)c12 [MYRICETIN]
DNA topoisomerase 1
  IC50: 37.4 µM

## Cc1oc2nc1-c1nc(co1)-c1nc(co1)-c1nc(co1)-c1nc(co1)-c1nc(co1)C1=NC(CS1)c1nc-2c(C)o1 (centres undefined) [TELOMESTATIN]
[2]
  IC50: 9 µM
[3]
  IC50: 10 µM
[4]
  IC50: 10 µM

## O=c1c(O)cccc2c([C@H]3Oc4cc(O)cc(O)c4C[C@H]3O)cc(O)c(O)c12 [THEAFLAVANIN]
[1]
  Ki: 0.286 µM
